Test results: patent publication US10647678B2 (Cancer Research Technology Limited, priority 2015, dated 2020)

System: HSF1 pathway (HSP72 expression) in SK-OV-3 cells
Assay: Cell-based ELISA (Cellisa) assay: HSP72 induction by 17-AAG in SK-OV-3 cells
Conditions: Homo sapiens, compound 1 h before 17-AAG (250 nM), then 18 h, HSP72 antibody, europium counts normalised to protein, 50% inhibitory concentration, read-out: SKOV3 Cellisa
Procedure: U2OS cells (5-8×10^4 cells/mL) or SK-OV-3 cells (5-8×10^4 cells/mL) were seeded into 96-well plates and incubated at 37° C. for 48 h. […] Cells were then incubated for 18 h. The medium was removed washed 2× with PBS and cells were then fixed with fixing solution (4% paraformaldehyde, 0.3% TritonX-100 in PBS) for 30 min at 4° C. The plates were then washed 2× with PBS before blocking with 5% milk for 30 min at 37° C. After washing the plates 4× with 0.1% Tween-20/deionised water, HSP72 antibody (SPA-810, Enzo Life) was added for 1.5 h at 37° C. Following 4× washes, the plates were incubated with europium-labelled anti-mouse antibody (0.6 ug/ml) in Delfia assay buffer (Perkin Elmer) for 1 h at 37° C. After washing the plates, Delfia enhancement solution was added, shaken for 10 min before reading in the Envision plate reader (Perkin-Elmer) with excitation at 340 nm and emission at 615 nm. The plates were washed again before protein determination using the bicinchoninic acid assay (BCA assay, Pierce Biotechnology). The europium counts were normalised for the amount of protein in each well. The 50% inhibitory concentration value of the compound was then calculated.

`Cc1ccc2cc(C(=O)Nc3cc(NC(=O)c4ccc5c(c4)OC(C)C5)ccc3C)ccc2n1` (racemic) [Example 2, (rac)-2-Methyl-N-(2-methyl-5-(2-methyl-2,3-dihydrobenzofuran-6-carboxamido)phenyl)quinoline-6-carboxamide] and `Cc1ccc2cc(C(=O)Nc3cc(NC(=O)c4ccc5c(c4)CC(C)O5)ccc3C)ccc2n1` (racemic) [Example 5, (rac)-2-Methyl-N-(2-methyl-5-(2-methyl-2,3-dihydrobenzofuran-5-carboxamido)phenyl)quinoline-6-carboxamide] are within 1.5-fold of each other in IC50: 3400 nM for the first, 2900 nM for the second.

Going from `Cc1ccc2cc(C(=O)Nc3cc(NC(=O)c4ccc5c(c4)OC(C)CO5)ccc3C)ccc2n1` (racemic) [Example 3, (rac)-2-Methyl-N-(2-methyl-5-(3-methyl-2,3-dihydrobenzo[b][1,4]dioxine-6-carboxamido)phenyl)quinoline-6-carboxamide] to `Cc1ccc2cc(C(=O)Nc3cc(NC(=O)c4ccc5c(c4)OC(C)CO5)ccc3F)ccc2n1` (centres unmarked) [Example 4, N-(2-Fluoro-5-(3-methyl-2,3-dihydrobenzo[b][1,4]dioxine-6-carboxamido)phenyl)-2-methylquinoline-6-carboxamide], the IC50 rises from 4100 nM to 8800 nM (2.1-fold).

Compared with `Cc1ccc2cc(C(=O)Nc3cc(NC(=O)c4ccc5c(c4)OCCC5)ccc3F)ccc2n1` [Example 6, N-(5-(Chroman-7-carboxamido)-2-fluorophenyl)-2-methylquinoline-6-carboxamide], `Cc1ccc2cc(C(=O)Nc3cc(NC(=O)c4ccc5c(c4)OCC5)ccc3F)ccc2n1` [Example 13, N-(5-(2,3-Dihydrobenzofuran-6-carboxamido)-2-fluorophenyl)-2-methylquinoline-6-carboxamide] is 1.5-fold lower in IC50: 2700 nM for the first, 1800 nM for the second.

`Cc1ccc2cc(C(=O)Nc3cc(NC(=O)c4ccc5c(c4)OCCC5)ccc3Cl)ccc2n1` [Example 7, N-(2-Chloro-5-(chroman-7-carboxamido)phenyl)-2-methylquinoline-6-carboxamide] and `Cc1ccc2cc(C(=O)Nc3cc(NC(=O)c4ccc5c(c4)OCC5)ccc3Cl)ccc2n1` [Example 14, N-(2-Chloro-5-(2,3-dihydrobenzofuran-6-carboxamido)phenyl)-2-methylquinoline-6-carboxamide] are within 1.5-fold of each other in IC50: 1500 nM for the first, 2100 nM for the second.

Compared with `Cc1ccc2cc(C(=O)Nc3cc(NC(=O)c4ccc5c(c4)OCO5)ccc3C)ccc2n1` [Example 8, N-(5-(Benzo[d][1,3]dioxole-5-carboxamido)-2-methylphenyl)-2-methylquinoline-6-carboxamide], `Cc1ccc2cc(C(=O)Nc3cc(NC(=O)c4ccc5c(c4)OCCCO5)ccc3C)ccc2n1` [Example 12, N-(5-(3,4-dihydro-2H-benzo[b][1,4]dioxepine-7-carboxamido)-2-methylphenyl)-2-methylquinoline-6-carboxamide] is 5.2-fold higher in IC50: 130 nM for the first, 670 nM for the second.

Compared with `Cc1ccc2cc(C(=O)Nc3cc(NC(=O)c4ccc5c(c4)OCC5)ccc3C)ccc2n1` [Example 9, N-(5-(2,3-Dihydrobenzofuran-6-carboxamido)-2-methylphenyl)-2-methylquinoline-6-carboxamide], `Cc1ccc2cc(C(=O)Nc3cc(NC(=O)c4ccc5c(c4)CCO5)ccc3C)ccc2n1` [Example 10, N-(5-(2,3-dihydrobenzofuran-5-carboxamido)-2-methylphenyl)-2-methylquinoline-6-carboxamide] is 11-fold higher in IC50: 170 nM for the first, 1800 nM for the second.

First: Cc1ccc2cc(C(=O)Nc3cc(NC(=O)c4ccc5ccoc5c4)ccc3C)ccc2n1 [Example 11, N-(5-(benzofuran-6-carboxamido)-2-methylphenyl)-2-methylquinoline-6-carboxamide]
Second: CCN1CCN(Cc2ccc3cc(C(=O)Nc4cc(NC(=O)c5ccc6c(c5)OCC6)ccc4C)ccc3n2)CC1 [Example 16, N-(5-(2,3-Dihydrobenzofuran-6-carboxamido)-2-methylphenyl)-2-((4-ethylpiperazin-1-yl)methyl)quinoline-6-carboxamide]
The IC50 of the first is 7.3-fold higher: 880 nM for the first, 120 nM for the second. The second is the more potent here.

`CCN1CCN(Cc2ccc3cc(C(=O)Nc4cc(NC(=O)c5ccc6c(c5)OCCC6)ccc4F)ccc3n2)CC1` [Example 15, N-(5-(Chroman-7-carboxamido)-2-fluorophenyl)-2-((4-ethylpiperazin-1-yl)methyl)quinoline-6-carboxamide] and `CCN1CCN(Cc2ccc3cc(C(=O)Nc4cc(NC(=O)c5ccc6c(c5)OCC6)ccc4F)ccc3n2)CC1` [Example 17, N-(5-(2,3-Dihydrobenzofuran-6-carboxamido)-2-fluorophenyl)-2-((4-ethylpiperazin-1-yl)methyl)quinoline-6-carboxamide] are within 1.5-fold of each other in IC50: 1000 nM for the first, 780 nM for the second.

Compared with `CCN1CCN(Cc2ccc3cc(C(=O)Nc4cc(NC(=O)c5ccc6c(c5)OCC6)ccc4Cl)ccc3n2)CC1` [Example 18, N-(2-Chloro-5-(2,3-dihydrobenzofuran-6-carboxamido)phenyl)-2-((4-ethylpiperazin-1-yl)methyl)quinoline-6-carboxamide], `O=C(Nc1ccc(Cl)c(NC(=O)c2ccc3nc(CN4CCC4)ccc3c2)c1)c1ccc2c(c1)OCC2` [Example 21] is 2.8-fold higher in IC50: 640 nM for the first, 1800 nM for the second.

`O=C(Nc1ccc(F)c(NC(=O)c2ccc3nc(CN4CCC4)ccc3c2)c1)c1ccc2c(c1)OCC2` [Example 19, 2-(Azetidin-1-ylmethyl)-N-(5-(2,3-dihydrobenzofuran-6-carboxamido)-2-fluorophenyl)quinoline-6-carboxamide] and `O=C(Nc1ccc(Cl)c(NC(=O)c2ccc3nc(CN4CCC4)ccc3c2)c1)c1ccc2c(c1)OCCC2` [Example 20, 2-(Azetidin-1-ylmethyl)-N-(2-chloro-5-(chroman-7-carboxamido)phenyl)quinoline-6-carboxamide] are within 1.5-fold of each other in IC50: 3100 nM for the first, 3800 nM for the second.
